Ki data for 24 compounds are collected here from patent publication US20210047304A1, “Bromodomain Inhibitors” (AbbVie Inc., priority 2016, published 2021).

pKi: −log10 of the molar value.

In the test the target is BRD4 (BDI_K57-E168) (Homo sapiens, UniProt O60885). Description: TR-FRET bromodomain binding assay, BRD4 BDI. For orientation: In TR-FRET formats the signal depends on donor and acceptor labels being close together.
Regarding `Cc1cc(F)cc(C)c1Oc1ccc(C(C)(C)O)cc1-c1cn(C)c(=O)cc1O[C@H]1CC[C@@H](C(=O)N2CCCC2)CC1` [Example 77, 5-[2-(4-fluoro-2,6-dimethylphenoxy)-5-(2-hydroxypropan-2-yl)phenyl]-1-methyl-4-{[cis-4-(pyrrolidine-1-carbonyl)cyclohexyl]oxy}pyridin-2(1H)-one], the pKi (usually the Ki on a negative log10 scale, so that one unit is a factor of ten) was less than 4.89. `Cc1cc(F)cc(C)c1Oc1ccc(C(C)(C)O)cc1-c1cn(C)c(=O)cc1O[C@H]1CC[C@H](N2C(=O)CN(C)C2=O)CC1` [Example 78, 3-[trans-4-({5-[2-(4-fluoro-2,6-dimethylphenoxy)-5-(2-hydroxypropan-2-yl)phenyl]-1-methyl-2-oxo-1,2-dihydropyridin-4-yl}oxy)cyclohexyl]-1-methylimidazolidine-2,4-dione] had a negative logarithm of the Ki (pKi) of 5.33. In the case of `Cc1cc(F)cc(C)c1Oc1ccc(C(C)(C)O)cc1-c1cn(C)c(=O)cc1O[C@H]1CC[C@H](NC(=O)C(C)(C)CCCO)CC1` [Example 79, N-[trans-4-({5-[2-(4-fluoro-2,6-dimethylphenoxy)-5-(2-hydroxypropan-2-yl)phenyl]-1-methyl-2-oxo-1,2-dihydropyridin-4-yl}oxy)cyclohexyl]-5-hydroxy-2,2-dimethylpentanamide], the pKi is 5.60.

In turn, `Cc1cc(F)cc(C)c1Oc1ccc(C(C)(C)O)cc1-c1cn(C)c(=O)cc1O[C@H]1CC[C@H](N2C(=O)CCCC2=O)CC1` [Example 80, 1-[trans-4-({5-[2-(4-fluoro-2,6-dimethylphenoxy)-5-(2-hydroxypropan-2-yl)phenyl]-1-methyl-2-oxo-1,2-dihydropyridin-4-yl}oxy)cyclohexyl]piperidine-2,6-dione] showed a pKi of 5.01. `Cc1cc(F)cc(C)c1Oc1ccc(C(C)(C)O)cc1-c1cn(C)c(=O)cc1O[C@H]1CC[C@H](N2C(=O)[C@@H](C)N(C)C2=O)CC1` [Example 81, (5R)-3-[trans-4-({5-[2-(4-fluoro-2,6-dimethylphenoxy)-5-(2-hydroxypropan-2-yl)phenyl]-1-methyl-2-oxo-1,2-dihydropyridin-4-yl}oxy)cyclohexyl]-1,5-dimethylimidazolidine-2,4-dione] showed a pKi of 5.17. In turn, `Cc1cc(F)cc(C)c1Oc1ccc(C(C)(C)O)cc1-c1cn(C)c(=O)cc1O[C@H]1CC[C@H](N2C(=O)COC2=O)CC1` [Example 82, 3-[trans-4-({5-[2-(4-fluoro-2,6-dimethylphenoxy)-5-(2-hydroxypropan-2-yl)phenyl]-1-methyl-2-oxo-1,2-dihydropyridin-4-yl}oxy)cyclohexyl]-1,3-oxazolidine-2,4-dione] showed a negative logarithm of the Ki (pKi) of 5.82.

`Cc1cc(F)cc(C)c1Oc1ccc(C(C)(C)O)cc1-c1cn(C)c(=O)cc1O[C@H]1CC[C@H](N2C(=O)[C@H](C)N(C)C2=O)CC1` [Example 83, (5S)-3-[trans-4-({5-[2-(4-fluoro-2,6-dimethylphenoxy)-5-(2-hydroxypropan-2-yl)phenyl]-1-methyl-2-oxo-1,2-dihydropyridin-4-yl}oxy)cyclohexyl]-1,5-dimethylimidazolidine-2,4-dione] gave a negative-log Ki (pKi) of 5.23. `CC(=O)NC1CCC(C)(Oc2cc(=O)n(C)cc2-c2cc(C(C)(C)O)ccc2Oc2c(C)cc(F)cc2C)CC1` (stereo not drawn) [Example 84, N-[trans-4-({5-[2-(4-fluoro-2,6-dimethylphenoxy)-5-(2-hydroxypropan-2-yl)phenyl]-1-methyl-2-oxo-1,2-dihydropyridin-4-yl}oxy)-4-methylcyclohexyl]acetamide] showed a pKi of less than 4.89. As for `Cc1cc(F)cc(C)c1Oc1ccc(C(C)(C)O)cc1-c1cn(C)c(=O)cc1O[C@H]1CC[C@H](NC(=O)C2(C#N)CC2)CC1` [Example 85, 1-cyano-N-[trans-4-({5-[2-(4-fluoro-2,6-dimethylphenoxy)-5-(2-hydroxypropan-2-yl)phenyl]-1-methyl-2-oxo-1,2-dihydropyridin-4-yl}oxy)cyclohexyl]cyclopropane-1-carboxamide], the pKi was 5.64. `Cc1cc(F)cc(C)c1Oc1ccc(C(C)(C)O)cc1-c1cn(C)c(=O)cc1O[C@H]1CC[C@H](NC(=O)C2(C)CC(=O)C2)CC1` [Example 87, N-[trans-4-({5-[2-(4-fluoro-2,6-dimethylphenoxy)-5-(2-hydroxypropan-2-yl)phenyl]-1-methyl-2-oxo-1,2-dihydropyridin-4-yl}oxy)cyclohexyl]-1-methyl-3-oxocyclobutane-1-carboxamide]: the pKi was 5.61. `Cc1cc(F)cc(C)c1Oc1ccc(C(C)(C)O)cc1-c1cn(C)c(=O)cc1O[C@H]1CC[C@H](NC(=O)C2(C#N)CCC2)CC1` [Example 88, 1-cyano-N-[trans-4-({5-[2-(4-fluoro-2,6-dimethylphenoxy)-5-(2-hydroxypropan-2-yl)phenyl]-1-methyl-2-oxo-1,2-dihydropyridin-4-yl}oxy)cyclohexyl]cyclobutane-1-carboxamide] had a pKi of 5.40. Turning to `Cc1cc(F)cc(C)c1Oc1ccc(C(C)(C)O)cc1-c1cn(C)c(=O)cc1O[C@H]1CC[C@H](N2C(=O)CCC(C)(C)C2=O)CC1` [Example 89, 1-[trans-4-({5-[2-(4-fluoro-2,6-dimethylphenoxy)-5-(2-hydroxypropan-2-yl)phenyl]-1-methyl-2-oxo-1,2-dihydropyridin-4-yl}oxy)cyclohexyl]-3,3-dimethylpiperidine-2,6-dione], the pKi was less than 4.89. `Cc1cc(F)cc(C)c1Oc1ccc(C(C)(C)O)cc1-c1cn(C)c(=O)cc1O[C@H]1CC[C@H](N2C(=O)CC(C)(C)C2=O)CC1` [Example 90, 1-[trans-4-({5-[2-(4-fluoro-2,6-dimethylphenoxy)-5-(2-hydroxypropan-2-yl)phenyl]-1-methyl-2-oxo-1,2-dihydropyridin-4-yl}oxy)cyclohexyl]-3,3-dimethylpyrrolidine-2,5-dione] showed a pKi of 4.94. Compound `Cc1cc(F)cc(C)c1Oc1ccc(C(C)(C)O)cc1-c1cn(C)c(=O)cc1O[C@H]1CC[C@H](N2C(=O)[C@@H]3CCCN3C2=O)CC1` [Example 91, (7aS)-2-[trans-4-({5-[2-(4-fluoro-2,6-dimethylphenoxy)-5-(2-hydroxypropan-2-yl)phenyl]-1-methyl-2-oxo-1,2-dihydropyridin-4-yl}oxy)cyclohexyl]tetrahydro-1H-pyrrolo[1,2-c]imidazole-1,3(2H)-dione] gave a pKi of 5.23. For `Cc1cc(F)cc(C)c1Oc1ccc(C(C)(C)O)cc1-c1cn(C)c(=O)cc1O[C@H]1CC[C@H](N2C(=O)O[C@@H](C)C2=O)CC1` [Example 92, (5S)-3-[trans-4-({5-[2-(4-fluoro-2,6-dimethylphenoxy)-5-(2-hydroxypropan-2-yl)phenyl]-1-methyl-2-oxo-1,2-dihydropyridin-4-yl}oxy)cyclohexyl]-5-methyl-1,3-oxazolidine-2,4-dione], the pKi is less than 4.89. `Cc1cc(F)cc(C)c1Oc1ccc(C(C)(C)O)cc1-c1cn(C)c(=O)cc1O[C@H]1C[C@@H](C(C)(C)O)C1` [Example 94, 5-[2-(4-fluoro-2,6-dimethylphenoxy)-5-(2-hydroxypropan-2-yl)phenyl]-4-{[cis-3-(2-hydroxypropan-2-yl)cyclobutyl]oxy}-1-methylpyridin-2(1H)-one] had a pKi of 5.78. Compound `CCNC(=O)[C@H]1C[C@@H](Oc2cc(=O)n(C)cc2-c2cc(C(C)(C)O)ccc2Oc2c(C)cc(F)cc2C)C1` [Example 95, cis-N-ethyl-3-({5-[2-(4-fluoro-2,6-dimethylphenoxy)-5-(2-hydroxypropan-2-yl)phenyl]-1-methyl-2-oxo-1,2-dihydropyridin-4-yl}oxy)cyclobutane-1-carboxamide] showed a pKi of 5.80. For `Cc1cc(F)cc(C)c1Oc1ccc(C(C)(C)O)cc1-c1cn(C)c(=O)cc1O[C@H]1C[C@@H](C(=O)N2CCCC2)C1` [Example 96, 5-[2-(4-fluoro-2,6-dimethylphenoxy)-5-(2-hydroxypropan-2-yl)phenyl]-1-methyl-4-{[cis-3-(pyrrolidine-1-carbonyl)cyclobutyl]oxy}pyridin-2(1H)-one] the value was 5.66. For `Cc1cc(F)cc(C)c1Oc1ccc(C(C)(C)O)cc1-c1cn(C)c(=O)cc1O[C@H]1C[C@@H](C(=O)O)C1` [Example 97, cis-3-({5-[2-(4-fluoro-2,6-dimethylphenoxy)-5-(2-hydroxypropan-2-yl)phenyl]-1-methyl-2-oxo-1,2-dihydropyridin-4-yl}oxy)cyclobutane-1-carboxylic acid] the value was 5.02; for `CC(=O)N(N)[C@H]1CC[C@H](Oc2cc(=O)n(C)cc2-c2cc(C(C)(C)O)ccc2Oc2c(C)cc(F)cc2C)CC1` [Example 98, N-[trans-4-({5-[2-(4-fluoro-2,6-dimethylphenoxy)-5-(2-hydroxypropan-2-yl)phenyl]-1-methyl-2-oxo-1,2-dihydropyridin-4-yl}oxy)cyclohexyl]acetohydrazide], 5.94; for `CC(=O)NN[C@H]1CC[C@@H](Oc2cc(=O)n(C)cc2-c2cc(C(C)(C)O)ccc2Oc2c(C)cc(F)cc2C)CC1` [Example 99, N′-[cis-4-({5-[2-(4-fluoro-2,6-dimethylphenoxy)-5-(2-hydroxypropan-2-yl)phenyl]-1-methyl-2-oxo-1,2-dihydropyridin-4-yl}oxy)cyclohexyl]acetohydrazide], 4.98.

`CC(=O)N[C@H]1C[C@H](Oc2cc(=O)n(C)cc2-c2cc(C(C)(C)O)ccc2Oc2c(C)cc(F)cc2C)C1` [Example 100, N-[trans-3-({5-[2-(4-fluoro-2,6-dimethylphenoxy)-5-(2-hydroxypropan-2-yl)phenyl]-1-methyl-2-oxo-1,2-dihydropyridin-4-yl}oxy)cyclobutyl]acetamide] gave a pKi of 6.14. On to `CNC(=O)[C@H]1CC[C@H](Oc2cc(=O)n(C)cc2-c2cc(C(C)(C)O)ccc2Oc2c(C)cc(F)cc2C)CC1` [Example 101, trans-4-({5-[2-(4-fluoro-2,6-dimethylphenoxy)-5-(2-hydroxypropan-2-yl)phenyl]-1-methyl-2-oxo-1,2-dihydropyridin-4-yl}oxy)-N-methylcyclohexane-1-carboxamide], for which the pKi is 5.45. In the case of `Cc1cc(F)cc(C)c1Oc1ccc(C(C)(C)O)cc1-c1cn(C)c(=O)cc1O[C@H]1CC[C@H](C(N)=O)CC1` [Example 102, trans-4-({5-[2-(4-fluoro-2,6-dimethylphenoxy)-5-(2-hydroxypropan-2-yl)phenyl]-1-methyl-2-oxo-1,2-dihydropyridin-4-yl}oxy)cyclohexane-1-carboxamide], the pKi was 5.40.
